Measurements as given in patent publication US20240279302A1, “OLFACTORY RECEPTOR EXPRESSING METHOD AND RESPONSE MEASUREMENT METHOD” (Kao Corporation, priority 2021, published 2024).
Read-outs that look alike come from different tables or passages of the source.

Legend:
Test in all cases: Luciferase assay, sulfur compounds
Format in all cases: cell-based
[1] = target: T1, consensus OR11H2 (Homo sapiens, UniProt Q8NH07, A157T/A61V/C266F/D203A/E289A/F213L/F41L/F62C/G242R/I210T/I230L/I288V/I49T/K181M/K238L/L128F/L146H/L162I/M76I/N106T/N25R/P269S/Q137R/Q308R/Q30L/R68Q/S246A/S268G/T131A/T283A/T37K/V63A/Y156C); conditions: in the presence of a copper ion
T1 construct: expressed in transfected cells; host or cells: HEK293
T1 sequence (Q8NH07 12-326 N25R/Q30L/T37K/F41L/I49T/A61V/F62C/V63A/R68Q/M76I/N106T/L128F/T131A/Q137R/L146H/Y156C/A157T/L162I/K181M/D203A/I210T/F213L/I230L/K238L/G242R/S246A/C266F/S268G/P269S/T283A/I288V/E289A/Q308R): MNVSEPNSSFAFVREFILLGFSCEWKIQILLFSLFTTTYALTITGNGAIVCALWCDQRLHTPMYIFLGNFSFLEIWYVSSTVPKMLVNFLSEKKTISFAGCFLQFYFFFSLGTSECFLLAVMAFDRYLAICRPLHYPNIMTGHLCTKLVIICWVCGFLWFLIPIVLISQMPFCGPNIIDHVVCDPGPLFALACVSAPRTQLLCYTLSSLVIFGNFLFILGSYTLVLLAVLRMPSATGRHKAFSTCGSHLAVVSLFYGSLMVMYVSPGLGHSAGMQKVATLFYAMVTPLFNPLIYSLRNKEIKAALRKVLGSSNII
Method: (§1) A reaction solution as to each consensus olfactory receptor prepared in Examples described above was prepared according to the composition shown in Table 4, left standing for 20 minutes in a clean bench, and then added to each well of a 96-well plate (Becton, Dickinson and Company). The original olfactory receptor was used as to OR4S2. Composition shown in Table 20 was used as to OR11H2 and OR4E2. Subsequently, 100 μL of HEK293 cells suspended in DMEM (Nacalai Tesque, Inc.) was inoculated at 2×10^5 cells/cm^2 to each well, and cultured for 24 hours in an incubator kept at 37° C. and 5% CO2. Cells expressing no olfactory receptor (Mock) were provided as a control.
(§2) The medium was removed from the cultures prepared in 1), and 75 μL of a test substance solution (methyl mercaptan (MeSH) (CAS: 74-93-1, Tokyo Chemical Industry Co., Ltd.), dimethyl sulfide (DMS) (CAS: 75-18-3, FUJIFILM Wako Pure Chemical Corp.), dimethyl disulfide (DMDS) (CAS: 624-92-0, Tokyo Chemical Industry Co., Ltd.), concentration range: 0 μM, 1 μM, 3 μM, 10 μM, 30 μM, 100 μM, and 300 μM, or dimethyl trisulfide (DMTS) (CAS: 3658-80-8, Tokyo Chemical Industry Co., Ltd.), concentration range: 0 μM, 0.1 μM, 0.3 μM, 1 μM, 3 μM, 10 μM, and 30 μM) prepared with a fresh medium was added thereto. Under a copper ion addition condition, the test substance solution was adjusted to contain 30 μM copper(II) chloride (FUJIFILM Wako Pure Chemical Corp.) in addition to the odorant. The cells were cultured for 4 hours in a CO2 incubator and the luciferase gene was expressed sufficiently in the cells. Luciferase activity was measured using Dual-Glo™ luciferase assay system (Promega Corp.) in accordance with the operation manual of the product. A luminescence value derived from firefly luciferase induced by test substance stimulation in each well of the 96-well plate was divided by a luminescence value derived from Renilla luciferase to calculate a value (fluc/hRluc) as a signal, which was then used in analysis. The signal under each transfection condition was normalized with the signal value (fluc/hRluc) under an odorant stimulation-free condition defined as 0% and the signal value (fluc/hRluc) by stimulation with 10 μM forskolin defined as 100%, and used as a response (%) in analysis.

[2] = target: T2, consensus OR6B3 (Homo sapiens, UniProt Q8NGW1, A219G/C161Y/C234R/F239S/F305L/G10S/I281L/L135I/L142V/M157V/M215V/P138T/Q89R/R8K/S64G/T78I/V136M/V15L/V166A/V250I)
T2 construct: expressed in transfected cells; host or cells: HEK293
T2 sequence (Q8NGW1 with tags, fused parts or gaps R8K/G10S/V15L/S64G/T78I/Q89R/L135I/V136M/P138T/L142V/M157V/C161Y/V166A/M215V/A219G/C234R/F239S/V250I/I281L/F305L): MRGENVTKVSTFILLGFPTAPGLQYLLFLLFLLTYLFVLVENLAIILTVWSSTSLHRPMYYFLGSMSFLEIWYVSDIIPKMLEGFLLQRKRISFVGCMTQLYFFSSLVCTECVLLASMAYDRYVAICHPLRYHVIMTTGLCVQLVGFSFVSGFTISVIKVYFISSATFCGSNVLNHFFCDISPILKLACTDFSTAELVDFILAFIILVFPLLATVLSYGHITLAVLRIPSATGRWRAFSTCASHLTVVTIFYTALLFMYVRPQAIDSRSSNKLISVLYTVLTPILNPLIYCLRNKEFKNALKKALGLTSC
Method: as §1, §2

[3] = target: T3, consensus OR4C15 (Homo sapiens, UniProt Q8NGM1, A218G/A270V/E23K/G63A/I200A/I247V/I275T/L152F/L222F/L266F/M197L/N174D/N209I/N278T/Q295N/R137W/R299K/T258A/T88R/V55G/V87E/W233R)
T3 construct: Flag (N); Rho tag (N); expressed in transfected cells; host or cells: HEK293
T3 sequence (Q8NGM1 1-311 with the stated changes limits assumed): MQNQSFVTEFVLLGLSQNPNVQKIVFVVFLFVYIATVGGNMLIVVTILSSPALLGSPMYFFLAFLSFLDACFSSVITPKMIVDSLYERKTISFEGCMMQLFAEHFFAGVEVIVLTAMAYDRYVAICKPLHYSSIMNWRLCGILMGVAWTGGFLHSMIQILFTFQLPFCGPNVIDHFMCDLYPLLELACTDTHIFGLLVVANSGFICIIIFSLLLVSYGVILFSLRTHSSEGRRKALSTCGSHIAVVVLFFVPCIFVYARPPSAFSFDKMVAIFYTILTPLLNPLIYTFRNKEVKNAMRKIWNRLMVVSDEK
Method: as §1, §2

[4] = target: T4, OR4S2 (original olfactory receptor) (Homo sapiens, UniProt Q8NH73); conditions: for dose dependence of the response of OR4S2 / response of OR4S2: in the presence of a copper ion
T4 construct: expressed in transfected cells; host or cells: HEK293
T4 sequence (Q8NH73 1-311): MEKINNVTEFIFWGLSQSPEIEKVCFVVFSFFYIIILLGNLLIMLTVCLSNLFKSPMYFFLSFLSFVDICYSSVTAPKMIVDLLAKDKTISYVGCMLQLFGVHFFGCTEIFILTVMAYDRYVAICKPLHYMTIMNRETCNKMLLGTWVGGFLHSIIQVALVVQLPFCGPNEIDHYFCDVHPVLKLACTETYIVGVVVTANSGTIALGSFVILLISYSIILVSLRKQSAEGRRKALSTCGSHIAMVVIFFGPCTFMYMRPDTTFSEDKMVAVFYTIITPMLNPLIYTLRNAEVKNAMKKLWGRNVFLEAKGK
Method: as §1, §2

[5] = in the presence of a copper ion

| EC50 ([4]; OR4S2 (original), 30 μM CuCl2, read-out: EC50(μM) with 30 μM CuCl2) | Structure (SMILES) | response of consensus OR11H2 [1] | EC50 [2] | dose dependence of the response of consensus OR6B3 [2, 5] | response of consensus OR6B3 [2, 5] | EC50 [3] | dose dependence of the response of consensus OR4C15 [3, 5] | response of consensus OR4C15 [3, 5] | EC50 [4] | dose dependence of the response of OR4S2 [4] | response of OR4S2 [4] |
| --- | --- | --- | --- | --- | --- | --- | --- | --- | --- | --- | --- |
| – | CSSC [dimethyl disulfide] | responded | 1600 µM | dose-dependent response | responded | 615 µM | dose-dependent response | responded | 530 µM | dose-dependent response | responded |
| 28 µM | CSSSC [dimethyl trisulfide] | responded | – | – | responded | – | – | responded | – | dose-dependent response | responded |
| – | CS [methyl mercaptan] | responded | – | – | responded | – | – | responded | – | – | responded |
